Measured values published in ChEMBL document CHEMBL1201862, “PubChem BioAssay data set” (2004).
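Five concentrations, 48 hours, 96-well plates. GI50 is the concentration that inhibits growth by half.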 Active and inactive are the calls of the source. Cut-off read from the data, not from the text of the source: active = GI50 up to about 1.1 µM and inactive = higher.

What was measured:
Test in all cases: NCI-60 cell line screen, 48 h
RPMI-8226 = tested on: RPMI-8226
HOP-62 = tested on: HOP-62
OVCAR-5 = tested on: OVCAR-5
SK-MEL-28 = tested on: SK-MEL-28
M14 = tested on: M14
SK-OV-3 = tested on: SK-OV-3
SF-268 = tested on: SF-268
ACHN = tested on: ACHN
UACC-257 = tested on: UACC-257
NCI-H226 = tested on: NCI-H226
Malme-3M = tested on: Malme-3M
SK-MEL-5 = tested on: SK-MEL-5
HL-60 = tested on: HL-60
LOX IMVI = tested on: LOX IMVI
NCI-H460 = tested on: NCI-H460
HCC 2998 = tested on: HCC 2998
EKVX = tested on: EKVX
A498 = tested on: A498
OVCAR-3 = tested on: OVCAR-3

Measured: GI50

[N-]=[N+]=NC1(Cc2ccccc2)C(=O)c2cccc3c2N(CCC3)C1=O (configuration not stated)
inactive: RPMI-8226 > 100 µM | HOP-62 > 100 µM | OVCAR-5 > 100 µM | SK-MEL-28 > 100 µM | M14 > 100 µM | SK-OV-3 40.3 µM | SF-268 > 100 µM | ACHN > 100 µM | UACC-257 > 100 µM | NCI-H226 > 100 µM | Malme-3M > 100 µM | SK-MEL-5 > 100 µM | HL-60 > 100 µM | LOX IMVI > 100 µM | NCI-H460 > 100 µM

Cc1[nH]c2ccccc2c1C1Cc2ccccc2N1C(=O)/C=C\C(=O)O (configuration not stated)
inactive: HCC 2998 45.6 µM | EKVX 44.8 µM | HOP-62 31.3 µM | OVCAR-5 > 100 µM | A498 32.1 µM | M14 57.7 µM | SK-OV-3 > 100 µM | SF-268 36.3 µM | ACHN 96.4 µM | UACC-257 19 µM | NCI-H226 27.9 µM | Malme-3M 73.3 µM | SK-MEL-5 22.6 µM | HL-60 26.4 µM | LOX IMVI 18.6 µM | OVCAR-3 55.2 µM | NCI-H460 > 100 µM

CCc1ccccc1NC(=O)C(=O)C(C#N)c1c(Cl)cccc1Cl (configuration not stated)
inactive: EKVX > 100 µM | RPMI-8226 > 100 µM | SK-MEL-28 > 100 µM | M14 > 100 µM | SK-OV-3 > 100 µM | SF-268 > 100 µM | ACHN > 100 µM | UACC-257 > 100 µM | NCI-H226 > 100 µM | Malme-3M > 100 µM | HL-60 > 100 µM | LOX IMVI > 100 µM | OVCAR-3 > 100 µM

Cc1ccc(S(=O)(=O)OC(c2ccc(Cl)cc2Cl)C2OC(=O)c3ccccc32)cc1 (configuration not stated)
inactive: EKVX > 100 µM | RPMI-8226 36.7 µM | HOP-62 > 100 µM | OVCAR-5 > 100 µM | SK-MEL-28 > 100 µM | M14 > 100 µM | SF-268 51.3 µM | ACHN > 100 µM | NCI-H226 19.7 µM | Malme-3M > 100 µM | SK-MEL-5 53.1 µM | HL-60 21.4 µM | LOX IMVI > 100 µM | OVCAR-3 40.4 µM | NCI-H460 35.8 µM

O=C1C2C3C=C4c5ccccc5N(c5ccccc5)C4(C2C(=O)N1c1ccccc1)C1C(=O)N(c2ccccc2)C(=O)C31 (configuration not stated)
inactive: HCC 2998 > 100 µM | HOP-62 > 100 µM | OVCAR-5 > 100 µM | A498 2.34 µM | SK-MEL-28 8.17 µM | M14 > 100 µM | SK-OV-3 > 10 µM | SF-268 > 100 µM | ACHN > 100 µM | UACC-257 42.8 µM | Malme-3M 7.67 µM | HL-60 > 100 µM | LOX IMVI > 100 µM | NCI-H460 4.05 µM

CC12CCC(=O)[C@@]1(C)CCCC2=O (some centres not stated)
inactive: HCC 2998 > 100 µM | EKVX > 100 µM | HOP-62 > 100 µM | OVCAR-5 > 100 µM | SK-MEL-28 > 100 µM | M14 > 100 µM | SK-OV-3 > 100 µM | SF-268 > 100 µM | ACHN > 100 µM | UACC-257 > 100 µM | NCI-H226 > 100 µM | Malme-3M > 100 µM | SK-MEL-5 > 10 µM | HL-60 > 100 µM | LOX IMVI > 100 µM | NCI-H460 > 100 µM

Cc1cc(Br)ccc1/N=N/c1c(C)nn(-c2ccccc2)c1-c1ccccc1
inactive: EKVX > 100 µM | RPMI-8226 > 100 µM | HOP-62 > 100 µM | OVCAR-5 53.7 µM | A498 > 100 µM | SK-MEL-28 > 100 µM | M14 > 100 µM | SK-OV-3 > 100 µM | SF-268 > 100 µM | ACHN 54.7 µM | UACC-257 49.3 µM | Malme-3M > 100 µM | SK-MEL-5 29 µM | HL-60 5.05 µM | LOX IMVI 16.6 µM | OVCAR-3 99.5 µM | NCI-H460 45.8 µM

CN(C)c1ccc(/C=C2\C[C@H]3[C@@H]4CC=C5C[C@@H](O)CC[C@]5(C)[C@H]4CC[C@]3(C)C2=O)cc1
inactive: EKVX 23.6 µM | RPMI-8226 66.8 µM | HOP-62 13.2 µM | OVCAR-5 17.9 µM | A498 20.9 µM | SK-MEL-28 16.2 µM | M14 16.6 µM | SK-OV-3 25.8 µM | SF-268 13 µM | ACHN 16.2 µM | UACC-257 19.9 µM | NCI-H226 20 µM | Malme-3M 19.5 µM | SK-MEL-5 50.7 µM | HL-60 > 100 µM | LOX IMVI 13.2 µM | OVCAR-3 24.8 µM | NCI-H460 15.8 µM

Cc1ccc(SSCCCCS(=O)O)cc1
inactive: HCC 2998 25.1 µM | EKVX 18.5 µM | HOP-62 28.7 µM | OVCAR-5 45.4 µM | A498 19.1 µM | SK-MEL-28 17.1 µM | M14 16.4 µM | SK-OV-3 34.2 µM | SF-268 10 µM | ACHN 19 µM | UACC-257 18.5 µM | Malme-3M 19.2 µM | SK-MEL-5 11.5 µM | HL-60 3.89 µM | LOX IMVI 9.79 µM | OVCAR-3 17.8 µM | NCI-H460 32.5 µM
